Experimental data from patent US9499478B2, “Substituted cyclopentanes for inducing hair growth” (Allergan, Inc., priority 2011, dated 2016).

Columns and labels:
[1] = Dermal tolerability in rats; type: in vivo; details: female rats, 3 mg/kg/day daily for 8 days; for change in food consumption or body weight gain (in words): IVb decreases not statistically significant
Method: Experimental Design. Female rats were administered either vehicle or one of Cmpds IVa, IIIb, or IVb daily for 8 days. The administered dose was 3 mg/kg/day, at a concentration of 3 mg/mL. Observed data were body weight, viability, food consumption, and dermal observation (skin reaction grading), as known in the art. The vehicle was Formulation A. See Table 1 above.

[2] = microAmes mutagenesis screen; type: cell-based; details: with or without metabolic activation
Text: Experimental Design. Cmpds IVa, IIIb, and IVb were subjected to the microAmes screen, as known in the art.

[3] = test system: mouse model of hair regrowth; assay: Piliation studies (mouse model of hair regrowth); type: in vivo, mice
Method: Experimental Design. C57Black/6J, 7-week old female mice (n=10) were employed in piliation studies. Dorsal hair was shaved (area ˜2 cm×4 cm). Dosing of active agent was once per day (QD) by topical administration for 14 days. Observations were conducted for 42-days to determine onset of new hair growth and day of hair growth completion. Compounds were formulated as either a) 50% propylene glycol, 30% ethanol, 20% water, or b) the formulation of Formulation A described above. The experiments reported for FIGS. 4A-4B, 5A-5B, 6A-6B, 8A-8B, and 9A-9B were conducted using a vehicle with formulation of 50% propylene glycol, 30% ethanol, 20% water. The experiments reported for FIGS. 7A-7B were conducted using a vehicle of Formulation A described above.
Results. For each of FIGS. 4A, 5A, 6A, 7A, 8A and 9A, the histograms depict the day of onset of hair growth. For each of FIGS. 4B, 5B, 6B, 7B, 8B and 9B, the histograms depict the day achieving full hair growth.

mouse skin = assay: Pathology assessment of mouse hair regrowth model; type: in vivo, mice; details: histology, 0.03%; vehicle control still in growth phase
Text: Experimental Design. Histological samples from test subjects employed in the studies described in Example 12 were obtained for pathology assessment.

[4] = Pharmacokinetic assessment of mouse hair regrowth model (blood and skin); type: in vivo, mice; details: 0.03% dermal daily, all measured time points, LC/MS-MS
Method: Experimental Design. Female C57BL/6J mice (n=2) were assayed per time point per treatment group. Treatment groups: (1) vehicle; (2) 0.03% Cmpd IVa; (3) 0.03% Cmpd IIIb; (4) 0.03% Cmpd IVb; (5) 0.03% bimatoprost. Treatment dosing: dermal daily application of ˜60 uL test compound solution. Blood and skin pharmacokinetic time points were obtained at day 1 (1, 4, 8 and 24-hrs post-dose); day 2 (24-hrs post-dose); day 14 (24-hrs post-dose); and day 42 (28 days post day 14 dose). Bioanalysis employed LC/MS-MS.

[5] = In vitro human skin penetration, Franz diffusion chamber; type: in vitro ADME; details: for conversion to bimatoprost in the receptor chamber solution / Percentage Dose Applied, Receptor Chamber Solution, Prodrug / Percentage Dose Applied, Upper ⅓ Dermis, Prodrug: 0.03% in Formulation A; for Percentage Dose Applied, Receptor Chamber Solution, Prodrug / Percentage Dose Applied, Upper ⅓ Dermis, Prodrug: applied agent; for Percentage Dose Applied, Upper ⅓ Dermis, Prodrug: dermis at 48 hrs; for conversion to bimatoprost in skin layers: SC/Epi/Dermis layers
Text: Experimental Design. Test material: Dermatomed ex vivo human cadaver posterior trunk skin on 1.0 cm^2 Franz diffusion chamber as known in the art. Test size: 3 skin donors (obtained from New York Firefighters Skin Bank), 3 replicates per donor per formulation. Test formulations: 0.03% active agent (Cmpd IVa, Cmpd IIIb, Cmpd IVb) in Formulation A; control formulation: bimatoprost at 0.03% in Formulation A. Dosing regimen: receptor fluid at 2, 4, 24, and 48 hrs; SC/epidermis and dermis at 48 hrs. Sample analysis: LC/MS-MS to detect bimatoprost and Cmpds IVa, IIIb and IVb.

[6] = MALDI-MS imaging of compound distribution in mouse skin; type: in vivo
Method: Rationale. In order to determine the penetration, accumulation and/or differential distribution of bimatoprost and compounds disclosed herein upon dermal administration, MALDI-MS (matrix assisted laser desorption ionization mass spectroscopy) imaging was conducted on explanted samples of mouse skin after topical dermal administration.
Experimental Design. MALDI-MS imaging was conducted on mouse skin strips after administration of bimatoprost or compound disclosed herein once daily for 3 days. Samples of mouse skin were recovered 4 hr after day-3 dosing of compound. Dermal administration was conducted with vehicle, 0.03% bimatoprost, 3% bimatoprost, 0.03% Cmpd IVa, and 3% Cmpd IVa.
FIG. 16A depicts a typical explanted sample of mouse skin for these studies, wherein Cmpd IVa was applied via dermal administration. FIG. 16B depicts the result of MALDI-MS imaging. The intensity of each pixel within FIG. 16B reflects the concentration of Cmpd IVa at the corresponding point in the image depicted in FIG. 16A. FIG. 16C depicts a representative mass spectrum, corresponding to the region of FIG. 16B indicated by the white circle within FIG. 16B. Accordingly, each pixel of the image of FIG. 16B has an associated mass spectrum, providing the amounts of bimatoprost or other administered compound or metabolite thereof.

Row | Compound | Body Weight Gain, Mean ± SD [1] | Food Consumption, Mean ± SD [1] | change in food consumption or body weight gain (in words) [1] | mutagenicity [2] | pharmacological efficacy relative to bimatoprost ([3]; vehicle Formulation A) | hair cycle phase at day-42 (mouse skin) | level in the systemic circulation [4] | conversion to bimatoprost in the receptor chamber solution [5] | Percentage Dose Applied, Receptor Chamber Solution, Prodrug [5] | Percentage Dose Applied, Upper ⅓ Dermis, Prodrug [5] | conversion to bimatoprost in skin layers [5] | effectiveness of 0.03% compound compared to 0.1% to 0.3% bimatoprost ([3]; 0.03% Cmpd IVa) | pharmacological efficacy relative to bimatoprost ([3]; vehicle 50% propylene glycol, 30% ethanol, 20% water) | skin penetration of compound compared with bimatoprost ([6]; 3.0% topical dermal administration each) | detectability of compound in mouse skin by MALDI-MS imaging ([6]; after topical dermal administration at 0.03%) | activity in the time required to regain full hair growth ([3]; among compounds tested)
1 | CCNC(=O)CCC/C=C\C[C@@H]1[C@@H](/C=C/[C@@H](O)CCc2ccccc2)[C@H](OC(=O)CC)C[C@@H]1O [Cmpd IIIb, 11-propionyl bimatoprost] | 10.0 ± 6.1 g | 22.8 ± 1.36 g | no significant change | not mutagenic | approximately equivalent efficacy | returned to the resting phase | most undetectable | observed to convert to bimatoprost | 0.8% | 2.1% | converted to bimatoprost |  |  |  |  | 
2 | CCNC(=O)CCC/C=C\C[C@@H]1[C@@H](/C=C/[C@H](CCc2ccccc2)OC(C)=O)[C@H](O)C[C@@H]1O [Cmpd IVa, 15-acetyl-bimatoprost] | 9.0 ± 3.0 g | 21.14 ± 1.08 g | no significant change | not mutagenic | greater than bimatoprost | returned to the resting phase | most undetectable | observed to convert to bimatoprost | 4.3% | 3.8% | converted to bimatoprost | approximately equally effective | greater than bimatoprost | similar | detectable | 
3 | CCNC(=O)CCC/C=C\C[C@@H]1[C@@H](/C=C/[C@H](CCc2ccccc2)OC(=O)CC)[C@H](O)C[C@@H]1O [Cmpd IVb, 15-propionyl-bimatoprost] | 0.3 ± 6.7 g | 19.19 ± 1.32 g | decreases in both food consumption and body weight gain | not mutagenic | approximately equivalent efficacy | returned to the resting phase | most undetectable | observed to convert to bimatoprost | 2.1% | 1.9% | converted to bimatoprost |  |  |  |  | best activity
4 | CCNC(=O)CCC/C=C\C[C@@H]1[C@@H](/C=C/[C@@H](O)CCc2ccccc2)[C@H](O)C[C@@H]1O [bimatoprost, (Z)-7-((1R,2R,3R,5S)-3,5-dihydroxy-2-((S,E)-3-hydroxy-5-phenylpent-1-enyl)cyclopentyl)-N-ethylhept-5-enamide, reference compound] |  |  |  |  |  | returned to the resting phase | most undetectable |  | 1.1% | 7.0% |  |  |  |  |  | 
